Laboratory results taken from EP0726263A2, “Herbicidal (1,3,4)oxadiazoles and thiadiazoles” (American Cyanamid Company, priority 1995, dated 1996).

Experiments:
Assay type in all cases: in vivo
Chenopodium album [1] = experiment: Herbicidal activity, postemergence test; settings: post; sprayed onto seedling plants, 800 g of active material per hectare; evaluated 2 weeks after treatment
Description: (§1) To evaluate their herbicidal activity, compounds according to the invention are tested using a representative range of plants: TRZAW Triticum aestivum HORVW Hordeum vulgare ZEAMX Zea mays GOSHI Gossypium hirsutum HELAN Helianthus annuus GLYMA Glycine max ALOMY Alopecurus myosuroides SETVI Setaria viridis ECHCG Echinochloa crus-galli GALAP Galium aparine STEME Stellaria media VERPE Veronica persica VIOAR Viola arvensis IPOHE Ipomoea hederacea LAMPU Lamium purpureum PAPRH Papaver rhoeas MATIN Matricaria inodora AMARE Amaranthus retroflexus ABUTH Abutilon theophrasti AMBEL Ambrosia artemisifolia CHEAL Chenopodium album
(§2) The tests fall into two categories, preemergence and postemergence. The preemergence tests involve spraying a liquid formulation of the compound onto the soil in which the seeds have recently been sown. The postemergence tests involve spraying a liquid formulation of the compound onto seedling plants.
(§3) The soil used in the tests is a prepared horticultural loam.
(§4) The formulations used in the tests are prepared from solutions of the test compounds in acetone containing 0.4% by weight of an alkylphenol/ethylene oxide condensate available under the trade mark TRITON X-155. These acetone solutions are diluted with water and the resulting formulations applied at dosage levels corresponding to 800 g of active material per hectare in a volume equivalent to 900 litres per hectare.
(§5) In the preemergence tests untreated sown soil and in the postemergence tests untreated soil bearing seedling plants are used as controls.
(§6) Results of herbicide evaluation are expressed on a rating scale (0-9). The scale is based upon a visual observation of plant stand, vigor, malformation, size, chlorosis, and general plant appearance as compared to a control. Preemergence and postemergence treatments are evaluated at 3 and 2 weeks after treatment, respectively.

Matricaria inodora [2] = experiment: Herbicidal activity, postemergence test; settings: post; sprayed onto seedling plants, 800 g of active material per hectare; evaluated 2 weeks after treatment
Description: as §1, §2, §3, §4, §5, §6

Veronica persica [3] = experiment: Herbicidal activity, postemergence test; settings: post; sprayed onto seedling plants, 800 g of active material per hectare; evaluated 2 weeks after treatment
Description: as §1, §2, §3, §4, §5, §6

Galium aparine [4] = experiment: Herbicidal activity, postemergence test; settings: post; sprayed onto seedling plants, 800 g of active material per hectare; evaluated 2 weeks after treatment
Description: as §1, §2, §3, §4, §5, §6

Amaranthus retroflexus [5] = experiment: Herbicidal activity, postemergence test; settings: post; sprayed onto seedling plants, 800 g of active material per hectare; evaluated 2 weeks after treatment
Description: as §1, §2, §3, §4, §5, §6

Glycine max [6] = experiment: Herbicidal activity, postemergence test; settings: post; sprayed onto seedling plants, 800 g of active material per hectare; evaluated 2 weeks after treatment
Description: as §1, §2, §3, §4, §5, §6

Papaver rhoeas [7] = experiment: Herbicidal activity, postemergence test; settings: post; sprayed onto seedling plants, 800 g of active material per hectare; evaluated 2 weeks after treatment
Description: as §1, §2, §3, §4, §5, §6

Lamium purpureum [8] = experiment: Herbicidal activity, postemergence test; settings: post; sprayed onto seedling plants, 800 g of active material per hectare; evaluated 2 weeks after treatment
Description: as §1, §2, §3, §4, §5, §6

Alopecurus myosuroides [9] = experiment: Herbicidal activity, postemergence test; settings: post; sprayed onto seedling plants, 800 g of active material per hectare; evaluated 2 weeks after treatment
Description: as §1, §2, §3, §4, §5, §6

Triticum aestivum [10] = experiment: Herbicidal activity, postemergence test; settings: post; sprayed onto seedling plants, 800 g of active material per hectare; evaluated 2 weeks after treatment
Description: as §1, §2, §3, §4, §5, §6

Ipomoea hederacea [11] = experiment: Herbicidal activity, postemergence test; settings: post; sprayed onto seedling plants, 800 g of active material per hectare; evaluated 2 weeks after treatment
Description: as §1, §2, §3, §4, §5, §6

Stellaria media [12] = experiment: Herbicidal activity, postemergence test; settings: post; sprayed onto seedling plants, 800 g of active material per hectare; evaluated 2 weeks after treatment
Description: as §1, §2, §3, §4, §5, §6

Setaria viridis [13] = experiment: Herbicidal activity, postemergence test; settings: post; sprayed onto seedling plants, 800 g of active material per hectare; evaluated 2 weeks after treatment
Description: as §1, §2, §3, §4, §5, §6

Zea mays [14] = experiment: Herbicidal activity, postemergence test; settings: post; sprayed onto seedling plants, 800 g of active material per hectare; evaluated 2 weeks after treatment
Description: as §1, §2, §3, §4, §5, §6

Abutilon theophrasti [15] = experiment: Herbicidal activity, postemergence test; settings: post; sprayed onto seedling plants, 800 g of active material per hectare; evaluated 2 weeks after treatment
Description: as §1, §2, §3, §4, §5, §6

Ambrosia artemisifolia [16] = experiment: Herbicidal activity, postemergence test; settings: post; sprayed onto seedling plants, 800 g of active material per hectare; evaluated 2 weeks after treatment
Description: as §1, §2, §3, §4, §5, §6

Gossypium hirsutum [17] = experiment: Herbicidal activity, postemergence test; settings: post; sprayed onto seedling plants, 800 g of active material per hectare; evaluated 2 weeks after treatment
Description: as §1, §2, §3, §4, §5, §6

Hordeum vulgare [18] = experiment: Herbicidal activity, postemergence test; settings: post; sprayed onto seedling plants, 800 g of active material per hectare; evaluated 2 weeks after treatment
Description: as §1, §2, §3, §4, §5, §6

Chenopodium album [19] = experiment: Herbicidal activity, preemergence test; settings: pre; sprayed onto soil, 800 g of active material per hectare; evaluated 3 weeks after treatment
Description: as §1, §2, §3, §4, §5, §6

Matricaria inodora [20] = experiment: Herbicidal activity, preemergence test; settings: pre; sprayed onto soil, 800 g of active material per hectare; evaluated 3 weeks after treatment
Description: as §1, §2, §3, §4, §5, §6

Veronica persica [21] = experiment: Herbicidal activity, preemergence test; settings: pre; sprayed onto soil, 800 g of active material per hectare; evaluated 3 weeks after treatment
Description: as §1, §2, §3, §4, §5, §6

Galium aparine [22] = experiment: Herbicidal activity, preemergence test; settings: pre; sprayed onto soil, 800 g of active material per hectare; evaluated 3 weeks after treatment
Description: as §1, §2, §3, §4, §5, §6

Amaranthus retroflexus [23] = experiment: Herbicidal activity, preemergence test; settings: pre; sprayed onto soil, 800 g of active material per hectare; evaluated 3 weeks after treatment
Description: as §1, §2, §3, §4, §5, §6

Glycine max [24] = experiment: Herbicidal activity, preemergence test; settings: pre; sprayed onto soil, 800 g of active material per hectare; evaluated 3 weeks after treatment
Description: as §1, §2, §3, §4, §5, §6

Papaver rhoeas [25] = experiment: Herbicidal activity, preemergence test; settings: pre; sprayed onto soil, 800 g of active material per hectare; evaluated 3 weeks after treatment
Description: as §1, §2, §3, §4, §5, §6

Lamium purpureum [26] = experiment: Herbicidal activity, preemergence test; settings: pre; sprayed onto soil, 800 g of active material per hectare; evaluated 3 weeks after treatment
Description: as §1, §2, §3, §4, §5, §6

Alopecurus myosuroides [27] = experiment: Herbicidal activity, preemergence test; settings: pre; sprayed onto soil, 800 g of active material per hectare; evaluated 3 weeks after treatment
Description: as §1, §2, §3, §4, §5, §6

Triticum aestivum [28] = experiment: Herbicidal activity, preemergence test; settings: pre; sprayed onto soil, 800 g of active material per hectare; evaluated 3 weeks after treatment
Description: as §1, §2, §3, §4, §5, §6

Ipomoea hederacea [29] = experiment: Herbicidal activity, preemergence test; settings: pre; sprayed onto soil, 800 g of active material per hectare; evaluated 3 weeks after treatment
Description: as §1, §2, §3, §4, §5, §6

Stellaria media [30] = experiment: Herbicidal activity, preemergence test; settings: pre; sprayed onto soil, 800 g of active material per hectare; evaluated 3 weeks after treatment
Description: as §1, §2, §3, §4, §5, §6

Setaria viridis [31] = experiment: Herbicidal activity, preemergence test; settings: pre; sprayed onto soil, 800 g of active material per hectare; evaluated 3 weeks after treatment
Description: as §1, §2, §3, §4, §5, §6

Zea mays [32] = experiment: Herbicidal activity, preemergence test; settings: pre; sprayed onto soil, 800 g of active material per hectare; evaluated 3 weeks after treatment
Description: as §1, §2, §3, §4, §5, §6

Abutilon theophrasti [33] = experiment: Herbicidal activity, preemergence test; settings: pre; sprayed onto soil, 800 g of active material per hectare; evaluated 3 weeks after treatment
Description: as §1, §2, §3, §4, §5, §6

Ambrosia artemisifolia [34] = experiment: Herbicidal activity, preemergence test; settings: pre; sprayed onto soil, 800 g of active material per hectare; evaluated 3 weeks after treatment
Description: as §1, §2, §3, §4, §5, §6

Gossypium hirsutum [35] = experiment: Herbicidal activity, preemergence test; settings: pre; sprayed onto soil, 800 g of active material per hectare; evaluated 3 weeks after treatment
Description: as §1, §2, §3, §4, §5, §6

Hordeum vulgare [36] = experiment: Herbicidal activity, preemergence test; settings: pre; sprayed onto soil, 800 g of active material per hectare; evaluated 3 weeks after treatment
Description: as §1, §2, §3, §4, §5, §6

SMILES: C[C@H](NC(=O)c1nnc(-c2ccc(C(C)(C)C)cc2)o1)c1ccccc1 [Example 16]
- CHEAL control rating (0-9) (Chenopodium album [1]): 7 (good herbicidal effect)
- MATIN control rating (0-9) (Matricaria inodora [2]): 9 (complete kill)
- VERPE control rating (0-9) (Veronica persica [3]): 9 (complete kill)
- GALAP control rating (0-9) (Galium aparine [4]): 7 (good herbicidal effect)
- AMARE control rating (0-9) (Amaranthus retroflexus [5]): 9 (complete kill)
- GLXMA control rating (0-9) (Glycine max [6]): 4 (injury)
- PAPRH control rating (0-9) (Papaver rhoeas [7]): 7 (good herbicidal effect)
- LAMPU control rating (0-9) (Lamium purpureum [8]): 9 (complete kill)
- ALOMY control rating (0-9) (Alopecurus myosuroides [9]): 3 (moderate effect)
- TRZAW control rating (0-9) (Triticum aestivum [10]): 2 (slight effect)
- IPOHE control rating (0-9) (Ipomoea hederacea [11]): 8 (approaching complete kill)
- STEME control rating (0-9) (Stellaria media [12]): 9 (complete kill)
- SETVI control rating (0-9) (Setaria viridis [13]): 9 (complete kill)
- ZEAMX control rating (0-9) (Zea mays [14]): 3 (moderate effect)
- ABUTH control rating (0-9) (Abutilon theophrasti [15]): 8 (approaching complete kill)
- AMBEL control rating (0-9) (Ambrosia artemisifolia [16]): 8 (approaching complete kill)
- GOSHI control rating (0-9) (Gossypium hirsutum [17]): 9 (complete kill)
- HORVW control rating (0-9) (Hordeum vulgare [18]): 4 (injury)
- CHEAL control rating (0-9) (Chenopodium album [19]): 7 (good herbicidal effect)
- MATIN control rating (0-9) (Matricaria inodora [20]): 9 (complete kill)
- VERPE control rating (0-9) (Veronica persica [21]): 9 (complete kill)
- GALAP control rating (0-9) (Galium aparine [22]): 0 (no effect)
- AMARE control rating (0-9) (Amaranthus retroflexus [23]): 9 (complete kill)
- GLXMA control rating (0-9) (Glycine max [24]): 0 (no effect)
- PAPRH control rating (0-9) (Papaver rhoeas [25]): 9 (complete kill)
- LAMPU control rating (0-9) (Lamium purpureum [26]): 8 (approaching complete kill)
- ALOMY control rating (0-9) (Alopecurus myosuroides [27]): 0 (no effect)
- TRZAW control rating (0-9) (Triticum aestivum [28]): 0 (no effect)
- IPOHE control rating (0-9) (Ipomoea hederacea [29]): 1 (trace effect)
- STEME control rating (0-9) (Stellaria media [30]): 6 (herbicidal effect)
- SETVI control rating (0-9) (Setaria viridis [31]): 8 (approaching complete kill)
- ZEAMX control rating (0-9) (Zea mays [32]): 0 (no effect)
- ABUTH control rating (0-9) (Abutilon theophrasti [33]): 1 (trace effect)
- AMBEL control rating (0-9) (Ambrosia artemisifolia [34]): 3 (moderate effect)
- GOSHI control rating (0-9) (Gossypium hirsutum [35]): 0 (no effect)
- HORVW control rating (0-9) (Hordeum vulgare [36]): 0 (no effect)
